From ChEMBL document CHEMBL1149754, “Synthesis and evaluation of a focused library of pyridine dicarbonitriles against prion disease” (Eur J Med Chem, 2008) come the findings set out here.

SMILES strings stand for the structures.

The target of data set [1] is Major prion protein (Homo sapiens) (UniProt P04156). Put plainly: Binding affinity to human prion protein by surface plasmon resonance assay.
A short description of data set [2]: Inhibition of PrPSc formation in mouse SMB cells at 10 uM relative to control. The format is functional.
The target in data set [3] is Major prion protein (Mus musculus) (UniProt P04925). Put plainly: Binding affinity to mouse prion protein by surface plasmon resonance assay.
Sequence of Major prion protein (Mus musculus) (P04925 whole entry): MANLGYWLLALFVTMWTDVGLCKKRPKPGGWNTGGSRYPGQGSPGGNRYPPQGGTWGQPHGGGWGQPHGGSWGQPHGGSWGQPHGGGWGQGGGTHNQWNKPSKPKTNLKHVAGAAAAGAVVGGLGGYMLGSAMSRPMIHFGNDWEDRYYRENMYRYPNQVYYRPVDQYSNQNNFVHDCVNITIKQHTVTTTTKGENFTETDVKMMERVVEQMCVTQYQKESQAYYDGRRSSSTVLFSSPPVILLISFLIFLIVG
A short description of data set [4]: Toxicity against mouse SMB cells after 5 days by MTT assay. It is filed as cell-based. Conditions: 120 h.
The nature of data set [5]: Inhibition of PrPSc formation in mouse SMB cells at 5 uM relative to control. It is filed as functional.
Data set [6] can be described thus: Inhibition of PrPSc formation in mouse SMB cells. The format is functional, cell-based.
Data set [7] can be described thus: Inhibition of PrPSc formation in mouse SMB cells at 1 uM relative to control. It is filed as functional.
Data set [8] can be described thus: Toxicity against mouse SMB cells at 10 uM after 5 days by MTT assay. The format is cell-based. Conditions: 120 h.
Data set [9] can be described thus: Inhibition of PrPSc formation in mouse SMB cells at 0.05 uM relative to control. It is filed as functional.
A short description of data set [10]: Inhibition of PrPSc formation in mouse SMB cells at 7.5 uM relative to control. It is filed as functional.

Regarding `N#Cc1c(N)nc(Sc2ccccc2O)c(C#N)c1-c1ccc2c(c1)OCCO2`, the RUmax in data set [1] is 13.6%; in [3] it was 4.9%. Further, the inhibition at 10 µM in [2] was 89%. On to `COC(=O)c1ccc(Sc2nc(N)c(C#N)c(-c3ccc(Cl)cc3)c2C#N)cc1`, for which the Activity entry in data set [4] is reported as “Toxic”. For the compound `N#Cc1c(N)nc(Sc2cccc(Cl)c2)c(C#N)c1-c1ccco1`, the inhibition at 10 µM in [2] came to 94%.

In the case of `N#Cc1c(N)nc(SCc2ccccc2)c(C#N)c1-c1cccs1`, the RUmax stood at 55.5% in [1] and 52.6% in data set [3]. In addition, the inhibition at 10 µM in data set [2] turned out to be 81%. With `N#Cc1c(N)nc(Sc2cccc(O)c2)c(C#N)c1-c1ccc2c(c1)OCO2`, the RUmax came out at 250% in data set [1] and 138% in [3]. The inhibition at 10 µM in [2] worked out at 75%. With `N#Cc1c(N)nc(Sc2ccc(Cl)cc2)c(C#N)c1-c1ccc(Cl)cc1`, the values for the RUmax in data set [1] and in [3] were 19.3% and 1.6%, respectively. In addition, in data set [2], the inhibition at 10 µM was determined as 72%. Consider `COC(=O)c1ccc(-c2c(C#N)c(N)nc(Sc3cccc(Cl)c3)c2C#N)cc1`, for which the inhibition at 5 µM in data set [5] came out at 46%.

Consider `COC(=O)c1cccc(Sc2nc(N)c(C#N)c(-c3cccc(O)c3)c2C#N)c1`, for which the inhibition at 10 µM in data set [2] was found to be 123%.

Consider `COC(=O)c1ccc(-c2c(C#N)c(N)nc(Sc3cccc(C(=O)OC)c3)c2C#N)cc1`, for which, in [6], a half-maximal response (EC50) required 8000 nM.

As for `N#Cc1c(N)nc(Sc2ccccc2)c(C#N)c1-c1ccc2c(c1)OCCO2`, the RUmax in data set [1] stood at 27.9%; in [3] it was 0%. Also, the inhibition at 10 µM in data set [2] came to 61%. `COC(=O)c1cccc(Sc2nc(N)c(C#N)c(-c3ccc(Cl)cc3)c2C#N)c1`: the RUmax in data set [1] came to 6.2%; in data set [3] it was 0%. Also, the inhibition at 1 µM in data set [7] was 63%. As for `N#Cc1c(N)nc(SCc2ccccc2)c(C#N)c1-c1ccco1`, the inhibition at 10 µM in data set [2] was determined as 111%. As to `N#Cc1c(N)nc(Sc2ccccc2O)c(C#N)c1-c1ccc(Cl)cc1`, the RUmax came to 9.1% in data set [1] and 0% in data set [3]. Further, in data set [2], the inhibition at 10 µM was found to be 76%.

As for `N#Cc1c(N)nc(Sc2cccc(Cl)c2)c(C#N)c1-c1cccs1`, the RUmax in data set [1] amounted to 124%; in data set [3], 72.2%. Moreover, in data set [2], the inhibition at 10 µM amounted to 84%. Take `N#Cc1c(N)nc(Sc2ccc(O)cc2)c(C#N)c1-c1ccc2c(c1)OCCO2`: the Activity result in [4] is “Toxic”. For `N#Cc1c(N)nc(Sc2cccc(O)c2)c(C#N)c1-c1cccc(O)c1`, the inhibition at 5 µM in [5] was determined as 36%. Further, the Activity entry in data set [8] was “Toxic”. Consider `N#Cc1c(N)nc(Sc2cccc(Cl)c2)c(C#N)c1-c1ccc(Cl)cc1`, for which, in data set [2], the inhibition at 10 µM was determined as 71%.

Turning to `COC(=O)c1cccc(Sc2nc(N)c(C#N)c(-c3cccs3)c2C#N)c1`, the inhibition at 10 µM in [2] is 87%. `COC(=O)c1ccc(Sc2nc(N)c(C#N)c(-c3ccc4c(c3)OCCO4)c2C#N)cc1`: the values for the RUmax in data set [1] and in data set [3] were 6% and 0%, respectively. Moreover, the inhibition at 0.05 µM in data set [9] stood at 23%. Regarding `N#Cc1c(N)nc(Sc2cccc(O)c2)c(C#N)c1-c1cccs1`, the inhibition at 10 µM in [2] came to 77%. Regarding `COC(=O)c1ccc(Sc2nc(N)c(C#N)c(-c3ccc(C(=O)OC)cc3)c2C#N)cc1`, the EC50 in data set [6] came to 9000 nM. As for `N#Cc1c(N)nc(SCc2ccccc2)c(C#N)c1-c1ccc(Cl)cc1`, the RUmax is 8.6% in data set [1] and 0% in data set [3]. The inhibition at 10 µM in data set [2] is 92%. In the case of `N#Cc1c(N)nc(Sc2ccc(O)cc2)c(C#N)c1-c1ccco1`, the results for the RUmax in data set [1] and in [3] were 21.9% and 19.6%, respectively. The inhibition at 0.05 µM in data set [9] is 24%. In the case of `N#Cc1c(N)nc(Sc2ccc(O)cc2)c(C#N)c1-c1ccc(Cl)cc1`, the inhibition at 10 µM in data set [2] was 90%.

As for `N#Cc1c(N)nc(SCc2ccccc2)c(C#N)c1-c1ccc2c(c1)OCCO2`, the inhibition at 10 µM in [2] came to 94%. Take `N#Cc1c(N)nc(Sc2ccc(O)cc2)c(C#N)c1-c1cccc(O)c1`: the inhibition at 10 µM in [2] is 85%. For `N#Cc1c(N)nc(Sc2cccc(Cl)c2)c(C#N)c1-c1ccc2c(c1)OCO2`, the RUmax in [1] was found to be 78.6%; in [3], 10.5%. Besides, in data set [2], the inhibition at 10 µM was found to be 96%. Consider `COC(=O)c1cccc(Sc2nc(N)c(C#N)c(-c3ccc4c(c3)OCO4)c2C#N)c1`, for which the RUmax in data set [1] was found to be 156%; in data set [3], 70.4%. For the same compound, in data set [2], the inhibition at 10 µM worked out at 75%.

As to `N#Cc1c(N)nc(Sc2cccc(O)c2)c(C#N)c1-c1ccc(Cl)cc1`, the inhibition at 10 µM in [2] came to 73%. The same measure, in the same setting: then `COC(=O)c1ccc(Sc2nc(N)c(C#N)c(-c3cccs3)c2C#N)cc1`, with 90%. As for `N#Cc1c(N)nc(SCc2ccccc2)c(C#N)c1-c1cccc(O)c1`, the results for the RUmax in data set [1] and in data set [3] were 96.5% and 112%, respectively. The inhibition at 10 µM in data set [2] worked out at 113%.

Turning to `COC(=O)c1cccc(Sc2nc(N)c(C#N)c(-c3ccco3)c2C#N)c1`, the figures for the RUmax in data set [1] and in data set [3] were 26.9% and 2.2%, respectively. In data set [2], the inhibition at 10 µM was found to be 69%.

Regarding `N#Cc1c(N)nc(Sc2cccc(Cl)c2)c(C#N)c1-c1ccc2c(c1)OCCO2`, the RUmax was 11.3% in [1] and 4.3% in data set [3]. For the same compound, the EC50 in data set [6] came to 2500 nM. Take `COC(=O)c1ccc(Sc2nc(N)c(C#N)c(-c3ccco3)c2C#N)cc1`: the inhibition at 10 µM in data set [2] came out at 69%.

For the compound `N#Cc1c(N)nc(Sc2ccccc2O)c(C#N)c1-c1cccs1`, the RUmax in data set [1] was 16.9%; in data set [3] it was 6.1%. In addition, the inhibition at 10 µM in [2] was 65%.

As for `COC(=O)c1ccc(-c2c(C#N)c(N)nc(Sc3cccc(O)c3)c2C#N)cc1`, the RUmax is 8.4% in data set [1] and 0% in [3]. Also, the inhibition at 10 µM in [2] was 77%.

As to `COC(=O)c1ccc(Sc2nc(N)c(C#N)c(-c3cccc(O)c3)c2C#N)cc1`, in [2], the inhibition at 10 µM stood at 70%. Regarding `N#Cc1c(N)nc(Sc2ccccc2)c(C#N)c1-c1ccc2c(c1)OCO2`, the inhibition at 10 µM in [2] was 86%. With `COC(=O)c1ccc(-c2c(C#N)c(N)nc(Sc3ccc(O)cc3)c2C#N)cc1`, the inhibition at 7.5 µM in data set [10] stood at 45%. Take `N#Cc1c(N)nc(Sc2ccc(O)cc2)c(C#N)c1-c1cccs1`: the inhibition at 10 µM in [2] was determined as 86%.

`N#Cc1c(N)nc(Sc2ccc(Cl)cc2)c(C#N)c1-c1ccc2c(c1)OCO2`: the inhibition at 10 µM in data set [2] came out at 67%. As for `N#Cc1c(N)nc(Sc2ccc(Cl)cc2)c(C#N)c1-c1cccs1`, the RUmax in data set [1] came to 8.8%; in data set [3] it was 0%. The same compound displayed an EC50 in [6] of 3000 nM. Take `N#Cc1c(N)nc(Sc2ccc(Cl)cc2)c(C#N)c1-c1ccco1`: the figures for the RUmax in data set [1] and in [3] were 37% and 44.8%, respectively. Also, in data set [2], the inhibition at 10 µM was 73%. As for `N#Cc1c(N)nc(Sc2ccc(O)cc2)c(C#N)c1-c1ccc2c(c1)OCO2`, in [2], the inhibition at 10 µM came out at 82%. Consider `N#Cc1c(N)nc(SCc2ccccc2)c(C#N)c1-c1ccc2c(c1)OCO2`, for which, in [2], the inhibition at 10 µM stood at 79%. Turning to `N#Cc1c(N)nc(Sc2cccc(Cl)c2)c(C#N)c1-c1cccc(O)c1`, in data set [5], the inhibition at 5 µM worked out at 36%. The Activity entry in data set [8] is given as “Toxic”. For `COC(=O)c1ccc(-c2c(C#N)c(N)nc(Sc3ccc(Cl)cc3)c2C#N)cc1`, the RUmax in data set [1] stood at 10.6%; in data set [3] it was 2.4%. Further, the inhibition at 10 µM in data set [2] came to 73%. Turning to `N#Cc1c(N)nc(Sc2ccc(Cl)cc2)c(C#N)c1-c1cccc(O)c1`, the values for the RUmax in data set [1] and in [3] were 15.7% and 8.9%, respectively. In [6], this compound gave a 50% effective concentration (EC50) of 3000 nM.

As for `COC(=O)c1cccc(Sc2nc(N)c(C#N)c(-c3ccc4c(c3)OCCO4)c2C#N)c1`, the inhibition at 0.05 µM in data set [9] was 44%. In the case of `N#Cc1c(N)nc(Sc2cccc(O)c2)c(C#N)c1-c1ccc2c(c1)OCCO2`, in data set [2], the inhibition at 10 µM stood at 86%. Same read-out and setting: under `N#Cc1c(N)nc(Sc2ccc(Cl)cc2)c(C#N)c1-c1ccc2c(c1)OCCO2` stands 68%. As to `COC(=O)c1ccc(-c2c(C#N)c(N)nc(SCc3ccccc3)c2C#N)cc1`, the RUmax in data set [1] is 9.3%; in data set [3], 0%. Also, the inhibition at 10 µM in data set [2] amounted to 107%. `COC(=O)c1ccc(-c2c(C#N)c(N)nc(Sc3ccccc3O)c2C#N)cc1`: the RUmax amounted to 5.7% in data set [1] and 0% in [3]. The inhibition at 10 µM in data set [2] turned out to be 72%.
